Where two headings read alike, the source gives them in different places.
Legend:
Test in all cases: Kinase inhibitory activity profiling of RI-962@10 µM (406 kinases, Eurofins)
Assay type in all cases: biochemical
[1] = target: panel of human kinases (kinase named in endpoint) (Homo sapiens, UniProt O00141); settings: 10 µM; read-out: Activity (%), SGK(h)
Procedure, shortened: (§1)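 Radiometric filter-binding kinase assays: enzyme preincubated 15 min with compound in 8 mM MOPS pH 7.0, 0.2 mM EDTA, 250 μM peptide substrate, 10 mM magnesium acetate, 10 μM [γ-33P]-ATP. Reaction started with Mg/ATP, run 40 min at room temperature, stopped with phosphoric acid; 33P incorporation read by scintillation counting. Other kinases by similar protocols.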

[2] = target: panel of human kinases (kinase named in endpoint) (Homo sapiens, UniProt O00311); settings: 10 µM; read-out: Activity (%), Cdc7/cyclinB1(h)
Procedure, shortened: as §1

[3] = target: panel of human kinases (kinase named in endpoint) (Homo sapiens, UniProt O60285); settings: 10 µM; read-out: Activity (%), ARK5(h)
Procedure, shortened: as §1

[4] = target: panel of human kinases (kinase named in endpoint) (Homo sapiens, UniProt O95819); settings: 10 µM; read-out: Activity (%), MAP4K4(h)
Procedure, shortened: as §1

[5] = target: panel of human kinases (kinase named in endpoint) (Homo sapiens, UniProt P06213); settings: 10 µM
Procedure, shortened: as §1

[6] = target: panel of human kinases (kinase named in endpoint) (Homo sapiens, UniProt P07949, V804M); settings: 10 µM; read-out: Activity (%), Ret(V804M)(h)
Procedure, shortened: as §1

[7] = target: panel of human kinases (kinase named in endpoint) (Homo sapiens, UniProt P08581, Y1230C); settings: 10 µM; read-out: Activity (%), Met(Y1248C)(h)
Procedure, shortened: as §1

[8] = target: panel of human kinases (kinase named in endpoint) (Homo sapiens, UniProt P10721); settings: 10 µM; read-out: Activity (%), cKit(h)
Procedure, shortened: as §1

[9] = target: panel of human kinases (kinase named in endpoint) (Homo sapiens, UniProt P15056); settings: 10 µM; read-out: Activity (%), B-Raf(h)
Procedure, shortened: as §1

[10] = target: panel of human kinases (kinase named in endpoint) (Homo sapiens, UniProt P31749); settings: 10 µM; read-out: Activity (%), PKBα(h)
Procedure, shortened: as §1

[11] = target: panel of human kinases (kinase named in endpoint) (Homo sapiens, UniProt P43403); settings: 10 µM; read-out: Activity (%), ZAP-70(h)
Procedure, shortened: as §1

[12] = target: panel of human kinases (kinase named in endpoint) (Homo sapiens, UniProt P53779); settings: 10 µM; read-out: Activity (%), JNK3(h)
Procedure, shortened: as §1

[13] = target: panel of human kinases (kinase named in endpoint) (Homo sapiens, UniProt Q00536); settings: 10 µM; read-out: Activity (%), CDK16/cyclinY(h)
Procedure, shortened: as §1

[14] = target: panel of human kinases (kinase named in endpoint) (Homo sapiens, UniProt Q08881); settings: 10 µM; read-out: Activity (%), Itk(h)
Procedure, shortened: as §1

[15] = target: panel of human kinases (kinase named in endpoint) (Homo sapiens, UniProt Q12851); settings: 10 µM; read-out: Activity (%), GCK(h)
Procedure, shortened: as §1

[16] = target: panel of human kinases (kinase named in endpoint) (Homo sapiens, UniProt Q13464); settings: 10 µM; read-out: Activity (%), ROCK-I(h)
Procedure, shortened: as §1

[17] = target: panel of human kinases (kinase named in endpoint) (Homo sapiens, UniProt Q86UE8); settings: 10 µM; read-out: Activity (%), TLK2(h)
Procedure, shortened: as §1

[18] = target: panel of human kinases (kinase named in endpoint) (Homo sapiens, UniProt Q86V86); settings: 10 µM; read-out: Activity (%), Pim-3(h)
Procedure, shortened: as §1

[19] = target: panel of human kinases (kinase named in endpoint) (Homo sapiens, UniProt Q8IY84); settings: 10 µM; read-out: Activity (%), NIM1(h)
Procedure, shortened: as §1

[20] = target: panel of human kinases (kinase named in endpoint) (Homo sapiens, UniProt Q8WXR4); settings: 10 µM; read-out: Activity (%), MYO3B(h)
Procedure, shortened: as §1

[21] = target: panel of human kinases (kinase named in endpoint) (Homo sapiens, UniProt Q92772); settings: 10 µM; read-out: Activity (%), CDKL2(h)
Procedure, shortened: as §1

[22] = target: panel of human kinases (kinase named in endpoint) (Homo sapiens, UniProt Q9BZL6); settings: 10 µM; read-out: Activity (%), PKD2(h)
Procedure, shortened: as §1

[23] = target: panel of human kinases (kinase named in endpoint) (Homo sapiens, UniProt Q9HCP0); settings: 10 µM; read-out: Activity (%), CK1γ1(h)
Procedure, shortened: as §1

[24] = target: panel of human kinases (kinase named in endpoint) (Homo sapiens, UniProt Q9UQ07); settings: 10 µM; read-out: Activity (%), MOK(h)
Procedure, shortened: as §1

[25] = target: panel of human kinases (kinase named in endpoint) (Mus musculus, UniProt Q4JIM5); settings: 10 µM; read-out: Activity (%), Arg(m)
Procedure, shortened: as §1

Chain of panel of human kinases (kinase named in endpoint) (Homo sapiens, UniProt P06213) (P06213 28-1382): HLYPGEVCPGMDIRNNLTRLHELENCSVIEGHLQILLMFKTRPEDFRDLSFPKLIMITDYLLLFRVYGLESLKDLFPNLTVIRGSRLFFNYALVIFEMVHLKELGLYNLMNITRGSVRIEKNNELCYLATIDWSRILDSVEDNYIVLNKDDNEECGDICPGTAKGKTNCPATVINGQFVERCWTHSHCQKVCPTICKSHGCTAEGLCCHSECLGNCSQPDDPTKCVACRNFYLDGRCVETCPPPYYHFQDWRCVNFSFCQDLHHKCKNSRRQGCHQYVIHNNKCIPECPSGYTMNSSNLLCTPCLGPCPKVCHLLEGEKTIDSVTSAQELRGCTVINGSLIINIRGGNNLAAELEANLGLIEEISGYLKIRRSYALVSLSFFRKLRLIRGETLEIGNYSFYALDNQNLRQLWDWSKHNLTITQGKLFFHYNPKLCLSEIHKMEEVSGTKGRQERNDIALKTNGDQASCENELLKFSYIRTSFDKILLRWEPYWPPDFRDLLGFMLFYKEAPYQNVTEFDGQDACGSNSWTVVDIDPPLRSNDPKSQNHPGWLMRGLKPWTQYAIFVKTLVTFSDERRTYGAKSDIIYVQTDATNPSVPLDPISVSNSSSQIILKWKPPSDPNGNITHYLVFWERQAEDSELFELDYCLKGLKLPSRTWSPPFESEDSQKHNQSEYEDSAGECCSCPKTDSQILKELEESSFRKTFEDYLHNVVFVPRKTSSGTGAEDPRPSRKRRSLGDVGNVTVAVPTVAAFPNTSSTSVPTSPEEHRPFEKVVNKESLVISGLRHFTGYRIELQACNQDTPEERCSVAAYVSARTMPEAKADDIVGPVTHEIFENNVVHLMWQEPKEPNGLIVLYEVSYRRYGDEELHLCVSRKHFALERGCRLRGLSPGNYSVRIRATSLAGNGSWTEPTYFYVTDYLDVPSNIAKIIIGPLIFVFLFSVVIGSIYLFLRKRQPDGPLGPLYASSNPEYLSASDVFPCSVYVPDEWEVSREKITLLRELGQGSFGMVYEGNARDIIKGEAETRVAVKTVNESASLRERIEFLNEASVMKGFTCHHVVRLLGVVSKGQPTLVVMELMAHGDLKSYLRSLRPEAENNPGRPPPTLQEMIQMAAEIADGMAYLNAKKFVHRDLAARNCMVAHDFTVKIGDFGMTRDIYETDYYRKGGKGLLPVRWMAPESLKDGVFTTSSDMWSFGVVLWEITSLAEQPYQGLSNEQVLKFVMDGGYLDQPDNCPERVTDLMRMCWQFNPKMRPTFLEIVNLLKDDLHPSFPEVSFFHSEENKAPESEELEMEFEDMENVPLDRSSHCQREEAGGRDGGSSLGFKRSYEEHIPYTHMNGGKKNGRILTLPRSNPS
Chain of panel of human kinases (kinase named in endpoint) (Homo sapiens, UniProt Q00536) (Q00536 whole entry): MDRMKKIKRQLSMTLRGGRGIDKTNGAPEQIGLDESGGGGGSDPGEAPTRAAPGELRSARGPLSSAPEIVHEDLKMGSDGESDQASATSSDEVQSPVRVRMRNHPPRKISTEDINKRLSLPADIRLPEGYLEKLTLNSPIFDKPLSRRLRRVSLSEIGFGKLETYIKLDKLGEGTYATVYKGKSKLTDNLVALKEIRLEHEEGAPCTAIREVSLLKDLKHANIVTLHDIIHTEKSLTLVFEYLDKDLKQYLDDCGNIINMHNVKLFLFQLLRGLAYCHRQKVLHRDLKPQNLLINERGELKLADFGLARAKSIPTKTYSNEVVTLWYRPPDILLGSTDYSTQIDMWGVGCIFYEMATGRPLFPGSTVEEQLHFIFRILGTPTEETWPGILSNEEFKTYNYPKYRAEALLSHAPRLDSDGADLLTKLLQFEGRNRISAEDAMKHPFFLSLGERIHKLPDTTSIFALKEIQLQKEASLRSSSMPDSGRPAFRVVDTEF
Chain of panel of human kinases (kinase named in endpoint) (Homo sapiens, UniProt Q8IY84) (Q8IY84 whole entry): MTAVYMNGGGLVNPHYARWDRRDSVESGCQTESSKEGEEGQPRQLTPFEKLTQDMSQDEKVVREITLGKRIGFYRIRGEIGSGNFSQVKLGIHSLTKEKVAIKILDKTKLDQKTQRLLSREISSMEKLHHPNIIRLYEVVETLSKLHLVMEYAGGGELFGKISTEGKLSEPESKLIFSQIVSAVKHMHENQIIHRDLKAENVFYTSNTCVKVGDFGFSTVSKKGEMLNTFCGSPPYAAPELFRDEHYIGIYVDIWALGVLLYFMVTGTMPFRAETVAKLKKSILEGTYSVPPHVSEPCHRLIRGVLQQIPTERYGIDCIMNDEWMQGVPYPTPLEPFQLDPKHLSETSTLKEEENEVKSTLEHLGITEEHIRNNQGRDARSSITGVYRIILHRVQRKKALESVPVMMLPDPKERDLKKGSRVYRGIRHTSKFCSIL
Chain of panel of human kinases (kinase named in endpoint) (Mus musculus, UniProt Q4JIM5) (Q4JIM5 whole entry): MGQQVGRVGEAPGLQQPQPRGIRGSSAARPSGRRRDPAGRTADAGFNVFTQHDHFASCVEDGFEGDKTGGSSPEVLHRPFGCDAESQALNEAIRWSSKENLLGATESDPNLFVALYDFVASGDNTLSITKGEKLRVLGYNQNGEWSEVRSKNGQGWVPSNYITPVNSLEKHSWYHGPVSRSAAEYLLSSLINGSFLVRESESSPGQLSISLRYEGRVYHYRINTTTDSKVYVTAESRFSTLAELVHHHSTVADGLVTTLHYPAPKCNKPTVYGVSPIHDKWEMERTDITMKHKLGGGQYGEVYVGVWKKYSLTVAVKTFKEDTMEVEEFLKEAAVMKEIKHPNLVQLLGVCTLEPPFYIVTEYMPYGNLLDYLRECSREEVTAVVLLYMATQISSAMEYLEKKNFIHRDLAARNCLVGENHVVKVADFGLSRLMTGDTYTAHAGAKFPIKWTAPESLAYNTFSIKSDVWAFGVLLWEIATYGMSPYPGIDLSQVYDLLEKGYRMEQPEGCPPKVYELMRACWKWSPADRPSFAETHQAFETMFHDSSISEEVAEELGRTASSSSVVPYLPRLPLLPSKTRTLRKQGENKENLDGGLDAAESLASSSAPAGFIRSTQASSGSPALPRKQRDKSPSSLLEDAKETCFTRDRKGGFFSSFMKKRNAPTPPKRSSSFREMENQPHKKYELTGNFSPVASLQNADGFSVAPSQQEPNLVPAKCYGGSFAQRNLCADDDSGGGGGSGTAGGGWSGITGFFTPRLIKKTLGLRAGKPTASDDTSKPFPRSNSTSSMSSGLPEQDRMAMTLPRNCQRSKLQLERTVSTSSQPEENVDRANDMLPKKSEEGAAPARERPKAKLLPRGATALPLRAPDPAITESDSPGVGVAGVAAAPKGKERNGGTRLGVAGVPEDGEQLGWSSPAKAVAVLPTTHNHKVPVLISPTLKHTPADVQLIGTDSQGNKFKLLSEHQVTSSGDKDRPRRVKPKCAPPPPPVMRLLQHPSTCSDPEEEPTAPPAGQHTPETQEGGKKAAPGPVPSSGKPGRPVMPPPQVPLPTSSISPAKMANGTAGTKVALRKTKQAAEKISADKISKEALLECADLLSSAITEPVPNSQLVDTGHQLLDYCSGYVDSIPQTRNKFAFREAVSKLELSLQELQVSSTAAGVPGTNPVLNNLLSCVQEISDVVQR
Chain of panel of human kinases (kinase named in endpoint) (Homo sapiens, UniProt P15056) (P15056 whole entry): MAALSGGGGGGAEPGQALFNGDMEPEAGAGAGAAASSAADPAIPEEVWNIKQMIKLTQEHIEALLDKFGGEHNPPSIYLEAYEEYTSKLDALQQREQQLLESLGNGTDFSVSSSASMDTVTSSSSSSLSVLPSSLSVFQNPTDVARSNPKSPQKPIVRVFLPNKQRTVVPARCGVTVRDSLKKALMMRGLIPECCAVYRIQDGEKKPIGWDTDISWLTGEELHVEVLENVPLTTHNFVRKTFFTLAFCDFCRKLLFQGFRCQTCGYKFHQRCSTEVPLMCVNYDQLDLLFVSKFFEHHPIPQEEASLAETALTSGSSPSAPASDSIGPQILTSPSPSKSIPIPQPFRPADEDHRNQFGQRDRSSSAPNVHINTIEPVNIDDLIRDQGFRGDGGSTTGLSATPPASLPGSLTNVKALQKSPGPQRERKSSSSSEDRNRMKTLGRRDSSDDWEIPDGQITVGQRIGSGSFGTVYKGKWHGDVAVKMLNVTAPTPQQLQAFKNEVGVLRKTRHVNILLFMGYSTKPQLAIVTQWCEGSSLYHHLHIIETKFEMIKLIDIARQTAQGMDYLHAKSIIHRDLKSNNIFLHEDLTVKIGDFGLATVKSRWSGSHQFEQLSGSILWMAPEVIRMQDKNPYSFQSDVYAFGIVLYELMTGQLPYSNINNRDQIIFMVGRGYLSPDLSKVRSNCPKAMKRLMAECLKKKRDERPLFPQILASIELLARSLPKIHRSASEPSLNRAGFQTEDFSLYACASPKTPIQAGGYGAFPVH
Chain of panel of human kinases (kinase named in endpoint) (Homo sapiens, UniProt O00141) (O00141 whole entry): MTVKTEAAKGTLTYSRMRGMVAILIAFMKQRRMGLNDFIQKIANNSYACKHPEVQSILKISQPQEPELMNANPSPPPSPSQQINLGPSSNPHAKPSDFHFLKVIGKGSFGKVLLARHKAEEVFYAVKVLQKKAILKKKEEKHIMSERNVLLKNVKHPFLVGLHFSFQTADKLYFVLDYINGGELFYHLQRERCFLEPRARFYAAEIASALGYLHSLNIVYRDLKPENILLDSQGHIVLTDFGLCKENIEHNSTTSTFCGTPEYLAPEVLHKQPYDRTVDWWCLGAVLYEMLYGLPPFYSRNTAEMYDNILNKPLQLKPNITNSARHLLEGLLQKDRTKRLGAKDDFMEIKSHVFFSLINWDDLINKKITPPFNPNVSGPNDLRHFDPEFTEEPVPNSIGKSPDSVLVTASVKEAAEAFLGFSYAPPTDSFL

Compound `CC(C)C(=O)Nc1nc2cc(-c3ccc4c(c3)c(C(=O)NC(C)c3ccccc3)cn4C)ccn2n1` (centres unmarked) [RI-962] has an activity at 10 µM [1] of 85%, an activity at 10 µM [2] of 53% and an activity at 10 µM [3] of 83%. It also gave an activity at 10 µM [4] of 88%, an activity at 10 µM ([5]; read-out: Activity (%), IR(h)) of 103% and an activity at 10 µM ([5]; read-out: Activity (%), IR(h), activated) of 89%. For the same compound, the activity at 10 µM [6] was 115%, the activity at 10 µM [7] was 116% and the activity at 10 µM [8] was 105%. For the same compound, the activity at 10 µM [9] was 99%, the activity at 10 µM [10] was 80% and the activity at 10 µM [11] was 95%. It also gave an activity at 10 µM [12] of 56%, an activity at 10 µM [13] of 121% and an activity at 10 µM [14] of 71%. It also gave an activity at 10 µM [15] of 83%, an activity at 10 µM [16] of 99% and an activity at 10 µM [17] of 78%. It also gave an activity at 10 µM [18] of 111%, an activity at 10 µM [19] of 88% and an activity at 10 µM [20] of 76%. It also gave an activity at 10 µM [21] of 77%, an activity at 10 µM [22] of 98% and an activity at 10 µM [23] of 94%. It also gave an activity at 10 µM [24] of 88% and an activity at 10 µM [25] of 90%.
